Laboratory results reported in ChEMBL document CHEMBL5104122, “Synthesis and application of phosphorylated saccharides in researching carbohydrate-based drugs” (Bioorg Med Chem, 2022).

Molecular target: Galectin-7 (Homo sapiens, UniProt P47929)
Test: Binding affinity to human Gal-7 assessed as dissociation constant by fluorescence polarization assay

Chain of Galectin-7 (P47929 whole entry): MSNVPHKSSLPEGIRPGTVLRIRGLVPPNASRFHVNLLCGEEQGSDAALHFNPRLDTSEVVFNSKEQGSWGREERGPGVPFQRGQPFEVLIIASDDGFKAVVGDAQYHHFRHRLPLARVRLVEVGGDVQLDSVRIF

Structure (SMILES) | Kd
CS[C@@H]1O[C@H](CO)[C@H](O)[C@H](NC(=O)c2ccc(C)cc2)[C@H]1OP(=O)(O)OCc1ccccc1 | 450 µM
COP(=O)(O)O[C@@H]1[C@@H](NC(=O)c2ccc(C)cc2)[C@@H](O)[C@@H](CO)O[C@H]1SC | 240 µM
